# Assays:
# [1] = target: 1-phosphatidylinositol 3-phosphate 5-kinase (Homo sapiens) (UniProt Q9Y2I7); assay: Selectivity interaction (KinomeScan (DiscoverX)) EUB0001079a PIKFYVE; details: at 1 µM
# [2] = target: Bromodomain testis-specific protein (Homo sapiens) (UniProt Q58F21); assay: Selectivity interaction (Bromodomain panel (DSF asssay)) EUB0000270b BRDT
# [3] = target: T1, Serine/threonine-protein kinase D3 (Homo sapiens) (UniProt O94806); assay: Selectivity interaction (ActivX KiNativ screen (kinase selectivity in THP-1 cell lysates)) EUB0000639a PRKD3; format: subcellular; details: lysate
# T1 sequence (whole entry): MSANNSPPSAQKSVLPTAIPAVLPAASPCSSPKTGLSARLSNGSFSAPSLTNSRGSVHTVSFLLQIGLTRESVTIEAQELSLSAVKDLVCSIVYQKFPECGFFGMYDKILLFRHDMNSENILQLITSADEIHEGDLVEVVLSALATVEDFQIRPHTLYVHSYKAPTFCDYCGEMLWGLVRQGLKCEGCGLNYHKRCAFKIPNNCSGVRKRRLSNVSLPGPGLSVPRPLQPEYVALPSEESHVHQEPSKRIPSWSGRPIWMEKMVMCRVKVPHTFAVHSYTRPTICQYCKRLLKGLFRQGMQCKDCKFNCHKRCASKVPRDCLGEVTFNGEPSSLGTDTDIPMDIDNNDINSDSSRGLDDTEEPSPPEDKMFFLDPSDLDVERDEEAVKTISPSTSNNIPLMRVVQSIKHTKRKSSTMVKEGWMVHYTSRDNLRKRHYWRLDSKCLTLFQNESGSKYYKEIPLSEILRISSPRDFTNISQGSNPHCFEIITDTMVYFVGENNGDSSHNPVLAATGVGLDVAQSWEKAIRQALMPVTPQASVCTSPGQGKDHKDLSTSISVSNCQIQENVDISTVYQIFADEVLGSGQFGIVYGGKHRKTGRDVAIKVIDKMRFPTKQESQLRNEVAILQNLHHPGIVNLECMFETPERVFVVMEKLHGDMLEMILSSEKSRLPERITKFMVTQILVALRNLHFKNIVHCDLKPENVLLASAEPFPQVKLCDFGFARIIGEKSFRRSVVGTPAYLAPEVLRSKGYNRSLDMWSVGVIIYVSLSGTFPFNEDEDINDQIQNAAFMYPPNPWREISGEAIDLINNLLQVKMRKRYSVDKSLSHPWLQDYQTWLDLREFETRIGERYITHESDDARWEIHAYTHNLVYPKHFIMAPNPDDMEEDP
# [4] = target: Casein kinase I isoform gamma-1 (Homo sapiens) (UniProt Q9HCP0); details: at 10 µM
# Sequence of Casein kinase I isoform gamma-1 (Homo sapiens) (Q9HCP0 whole entry, looked up, canonical isoform): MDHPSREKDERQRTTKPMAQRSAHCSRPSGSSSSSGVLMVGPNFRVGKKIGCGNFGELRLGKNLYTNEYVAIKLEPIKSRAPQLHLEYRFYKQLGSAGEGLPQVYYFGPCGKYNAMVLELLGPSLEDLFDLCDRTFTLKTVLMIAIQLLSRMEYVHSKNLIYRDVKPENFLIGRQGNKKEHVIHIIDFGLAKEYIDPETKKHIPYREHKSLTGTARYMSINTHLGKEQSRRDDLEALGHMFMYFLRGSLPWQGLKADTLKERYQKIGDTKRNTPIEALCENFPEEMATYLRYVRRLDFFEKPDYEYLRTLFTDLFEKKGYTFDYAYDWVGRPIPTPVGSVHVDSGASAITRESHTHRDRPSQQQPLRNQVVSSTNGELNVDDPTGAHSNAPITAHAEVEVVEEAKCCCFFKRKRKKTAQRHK
# [5] = target: Serine/threonine-protein kinase MARK1 (Homo sapiens) (UniProt Q9P0L2); details: at 10 µM
# [6] = target: Cyclin-dependent kinase 8 (Homo sapiens, UniProt P49336); assay: Selectivity interaction (KinomeScan (DiscoverX)) EUB0001619a CDK8; details: at 1 µM
# Sequence of Cyclin-dependent kinase 8 (P49336 whole entry): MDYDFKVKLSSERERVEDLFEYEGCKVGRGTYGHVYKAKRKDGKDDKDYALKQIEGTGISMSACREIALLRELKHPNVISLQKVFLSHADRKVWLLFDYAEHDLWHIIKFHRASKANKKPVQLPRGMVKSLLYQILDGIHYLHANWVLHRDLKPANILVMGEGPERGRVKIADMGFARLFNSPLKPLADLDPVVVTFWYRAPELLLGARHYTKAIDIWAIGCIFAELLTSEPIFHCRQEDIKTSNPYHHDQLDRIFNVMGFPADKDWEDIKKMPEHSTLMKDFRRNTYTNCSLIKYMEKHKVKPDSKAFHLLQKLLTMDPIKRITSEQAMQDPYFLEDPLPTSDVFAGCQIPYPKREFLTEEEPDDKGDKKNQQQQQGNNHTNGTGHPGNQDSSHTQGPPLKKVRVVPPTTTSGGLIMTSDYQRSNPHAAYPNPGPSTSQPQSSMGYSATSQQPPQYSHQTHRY
# [7] = target: Ribosomal protein S6 kinase alpha-6 (Homo sapiens, UniProt Q9UK32); assay: Selectivity interaction (Upstate Kinase Profiler service (Millipore)) EUB0000056c RPS6KA6; details: at 1 µM
# Sequence of Ribosomal protein S6 kinase alpha-6 (Q9UK32 whole entry, canonical isoform): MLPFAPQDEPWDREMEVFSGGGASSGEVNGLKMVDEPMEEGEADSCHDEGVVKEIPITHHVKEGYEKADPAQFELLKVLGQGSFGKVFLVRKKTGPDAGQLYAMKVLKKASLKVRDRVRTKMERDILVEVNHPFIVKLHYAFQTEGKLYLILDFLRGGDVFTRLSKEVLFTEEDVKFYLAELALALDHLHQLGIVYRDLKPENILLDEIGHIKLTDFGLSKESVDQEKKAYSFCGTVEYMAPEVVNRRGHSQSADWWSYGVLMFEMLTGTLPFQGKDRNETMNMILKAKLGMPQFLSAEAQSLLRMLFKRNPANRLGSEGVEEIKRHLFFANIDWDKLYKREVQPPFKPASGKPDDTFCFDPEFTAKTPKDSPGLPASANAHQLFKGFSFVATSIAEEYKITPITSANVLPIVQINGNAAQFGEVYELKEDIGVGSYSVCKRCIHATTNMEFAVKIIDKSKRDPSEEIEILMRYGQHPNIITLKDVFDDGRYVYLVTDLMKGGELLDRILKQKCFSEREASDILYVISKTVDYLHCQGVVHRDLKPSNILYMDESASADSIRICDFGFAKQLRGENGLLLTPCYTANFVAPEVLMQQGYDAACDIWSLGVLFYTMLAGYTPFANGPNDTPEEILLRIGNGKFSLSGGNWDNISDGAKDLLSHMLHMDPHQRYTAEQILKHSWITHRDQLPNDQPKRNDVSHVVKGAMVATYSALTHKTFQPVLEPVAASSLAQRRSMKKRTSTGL
# [8] = target: Phosphatidylinositol 4,5-bisphosphate 3-kinase catalytic subunit gamma isoform (Homo sapiens) (UniProt P48736); assay: Selectivity interaction (KinomeScan (DiscoverX)) EUB0000655a PIK3CG; details: at 10 µM
# [9] = target: Atypical kinase COQ8A, mitochondrial (Homo sapiens, UniProt Q8NI60); assay: Selectivity interaction (KinomeScan (DiscoverX)) EUB0000607a ADCK3; details: at 10 µM
# Sequence of Atypical kinase COQ8A, mitochondrial (Q8NI60 163-647 limits assumed): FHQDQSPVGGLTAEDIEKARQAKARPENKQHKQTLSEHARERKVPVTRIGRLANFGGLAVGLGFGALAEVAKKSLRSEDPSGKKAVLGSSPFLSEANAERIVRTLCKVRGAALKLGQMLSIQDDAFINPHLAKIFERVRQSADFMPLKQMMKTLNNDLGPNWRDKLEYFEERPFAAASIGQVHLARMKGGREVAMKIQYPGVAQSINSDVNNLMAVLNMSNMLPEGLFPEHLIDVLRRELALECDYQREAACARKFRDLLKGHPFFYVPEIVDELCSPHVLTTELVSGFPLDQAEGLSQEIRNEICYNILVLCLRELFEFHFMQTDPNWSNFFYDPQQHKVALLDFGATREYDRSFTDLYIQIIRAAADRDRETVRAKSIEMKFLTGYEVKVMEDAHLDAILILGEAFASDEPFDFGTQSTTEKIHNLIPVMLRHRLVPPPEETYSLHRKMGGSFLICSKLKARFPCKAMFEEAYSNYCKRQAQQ
# [10] = target: Mitogen-activated protein kinase kinase kinase 9 (Homo sapiens) (UniProt P80192); assay: Selectivity interaction (SelectScreen profiling (Invitrogen)) EUB0000607a MAP3K9; details: at 2 µM
# [11] = target: T2, Muscle, skeletal receptor tyrosine-protein kinase (Homo sapiens) (UniProt O15146); assay: Selectivity interaction (Kinase panel (Z-LYTE Assay)) EUB0001632a MUSK; details: at 10 µM
# T2 sequence (whole entry): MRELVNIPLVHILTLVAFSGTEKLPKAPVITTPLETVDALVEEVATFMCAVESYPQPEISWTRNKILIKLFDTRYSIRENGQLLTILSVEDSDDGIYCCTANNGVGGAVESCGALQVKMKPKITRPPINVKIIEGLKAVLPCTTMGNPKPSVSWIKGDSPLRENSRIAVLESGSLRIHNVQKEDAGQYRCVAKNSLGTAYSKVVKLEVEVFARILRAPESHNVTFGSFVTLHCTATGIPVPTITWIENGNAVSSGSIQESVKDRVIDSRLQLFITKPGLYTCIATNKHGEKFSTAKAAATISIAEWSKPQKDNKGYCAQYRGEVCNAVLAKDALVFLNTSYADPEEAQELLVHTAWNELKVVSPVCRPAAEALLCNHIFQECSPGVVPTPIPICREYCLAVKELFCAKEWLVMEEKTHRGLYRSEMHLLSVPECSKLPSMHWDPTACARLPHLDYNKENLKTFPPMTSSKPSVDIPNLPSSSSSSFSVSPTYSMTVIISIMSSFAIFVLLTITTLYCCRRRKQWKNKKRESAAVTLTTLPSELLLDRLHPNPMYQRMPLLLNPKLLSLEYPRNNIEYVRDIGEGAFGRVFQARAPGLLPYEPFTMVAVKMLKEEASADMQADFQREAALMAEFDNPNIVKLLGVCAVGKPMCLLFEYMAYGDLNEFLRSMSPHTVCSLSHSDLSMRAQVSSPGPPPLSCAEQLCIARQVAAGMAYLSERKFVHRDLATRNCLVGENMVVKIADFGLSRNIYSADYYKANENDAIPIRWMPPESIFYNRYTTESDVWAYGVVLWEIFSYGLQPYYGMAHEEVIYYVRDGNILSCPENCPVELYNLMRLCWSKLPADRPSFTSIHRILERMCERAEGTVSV
# [12] = target: Protein arginine N-methyltransferase 8 (Homo sapiens, UniProt Q9NR22); assay: Selectivity interaction (Methyltransferase screen (radiometric assays, panel of 8 PRMTs, 21 protein lysine methyltransferases, 3 DNA methyltransferases, and one RNA methyltransferase)) EUB0000271b PRMT8
# Sequence of Protein arginine N-methyltransferase 8 (Q9NR22 2-394 limits assumed): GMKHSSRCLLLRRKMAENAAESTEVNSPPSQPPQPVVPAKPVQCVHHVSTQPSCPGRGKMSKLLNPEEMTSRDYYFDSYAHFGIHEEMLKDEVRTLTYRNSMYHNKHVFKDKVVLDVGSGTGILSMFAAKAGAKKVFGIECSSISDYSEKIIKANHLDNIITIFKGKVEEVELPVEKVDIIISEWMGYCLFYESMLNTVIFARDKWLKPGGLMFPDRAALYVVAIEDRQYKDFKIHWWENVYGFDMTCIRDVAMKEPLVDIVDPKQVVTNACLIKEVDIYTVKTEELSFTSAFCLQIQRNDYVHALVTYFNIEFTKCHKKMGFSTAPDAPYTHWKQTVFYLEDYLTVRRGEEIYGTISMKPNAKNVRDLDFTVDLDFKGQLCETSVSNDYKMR
# Sequence of 1-phosphatidylinositol 3-phosphate 5-kinase (Homo sapiens) (Q9Y2I7 whole entry): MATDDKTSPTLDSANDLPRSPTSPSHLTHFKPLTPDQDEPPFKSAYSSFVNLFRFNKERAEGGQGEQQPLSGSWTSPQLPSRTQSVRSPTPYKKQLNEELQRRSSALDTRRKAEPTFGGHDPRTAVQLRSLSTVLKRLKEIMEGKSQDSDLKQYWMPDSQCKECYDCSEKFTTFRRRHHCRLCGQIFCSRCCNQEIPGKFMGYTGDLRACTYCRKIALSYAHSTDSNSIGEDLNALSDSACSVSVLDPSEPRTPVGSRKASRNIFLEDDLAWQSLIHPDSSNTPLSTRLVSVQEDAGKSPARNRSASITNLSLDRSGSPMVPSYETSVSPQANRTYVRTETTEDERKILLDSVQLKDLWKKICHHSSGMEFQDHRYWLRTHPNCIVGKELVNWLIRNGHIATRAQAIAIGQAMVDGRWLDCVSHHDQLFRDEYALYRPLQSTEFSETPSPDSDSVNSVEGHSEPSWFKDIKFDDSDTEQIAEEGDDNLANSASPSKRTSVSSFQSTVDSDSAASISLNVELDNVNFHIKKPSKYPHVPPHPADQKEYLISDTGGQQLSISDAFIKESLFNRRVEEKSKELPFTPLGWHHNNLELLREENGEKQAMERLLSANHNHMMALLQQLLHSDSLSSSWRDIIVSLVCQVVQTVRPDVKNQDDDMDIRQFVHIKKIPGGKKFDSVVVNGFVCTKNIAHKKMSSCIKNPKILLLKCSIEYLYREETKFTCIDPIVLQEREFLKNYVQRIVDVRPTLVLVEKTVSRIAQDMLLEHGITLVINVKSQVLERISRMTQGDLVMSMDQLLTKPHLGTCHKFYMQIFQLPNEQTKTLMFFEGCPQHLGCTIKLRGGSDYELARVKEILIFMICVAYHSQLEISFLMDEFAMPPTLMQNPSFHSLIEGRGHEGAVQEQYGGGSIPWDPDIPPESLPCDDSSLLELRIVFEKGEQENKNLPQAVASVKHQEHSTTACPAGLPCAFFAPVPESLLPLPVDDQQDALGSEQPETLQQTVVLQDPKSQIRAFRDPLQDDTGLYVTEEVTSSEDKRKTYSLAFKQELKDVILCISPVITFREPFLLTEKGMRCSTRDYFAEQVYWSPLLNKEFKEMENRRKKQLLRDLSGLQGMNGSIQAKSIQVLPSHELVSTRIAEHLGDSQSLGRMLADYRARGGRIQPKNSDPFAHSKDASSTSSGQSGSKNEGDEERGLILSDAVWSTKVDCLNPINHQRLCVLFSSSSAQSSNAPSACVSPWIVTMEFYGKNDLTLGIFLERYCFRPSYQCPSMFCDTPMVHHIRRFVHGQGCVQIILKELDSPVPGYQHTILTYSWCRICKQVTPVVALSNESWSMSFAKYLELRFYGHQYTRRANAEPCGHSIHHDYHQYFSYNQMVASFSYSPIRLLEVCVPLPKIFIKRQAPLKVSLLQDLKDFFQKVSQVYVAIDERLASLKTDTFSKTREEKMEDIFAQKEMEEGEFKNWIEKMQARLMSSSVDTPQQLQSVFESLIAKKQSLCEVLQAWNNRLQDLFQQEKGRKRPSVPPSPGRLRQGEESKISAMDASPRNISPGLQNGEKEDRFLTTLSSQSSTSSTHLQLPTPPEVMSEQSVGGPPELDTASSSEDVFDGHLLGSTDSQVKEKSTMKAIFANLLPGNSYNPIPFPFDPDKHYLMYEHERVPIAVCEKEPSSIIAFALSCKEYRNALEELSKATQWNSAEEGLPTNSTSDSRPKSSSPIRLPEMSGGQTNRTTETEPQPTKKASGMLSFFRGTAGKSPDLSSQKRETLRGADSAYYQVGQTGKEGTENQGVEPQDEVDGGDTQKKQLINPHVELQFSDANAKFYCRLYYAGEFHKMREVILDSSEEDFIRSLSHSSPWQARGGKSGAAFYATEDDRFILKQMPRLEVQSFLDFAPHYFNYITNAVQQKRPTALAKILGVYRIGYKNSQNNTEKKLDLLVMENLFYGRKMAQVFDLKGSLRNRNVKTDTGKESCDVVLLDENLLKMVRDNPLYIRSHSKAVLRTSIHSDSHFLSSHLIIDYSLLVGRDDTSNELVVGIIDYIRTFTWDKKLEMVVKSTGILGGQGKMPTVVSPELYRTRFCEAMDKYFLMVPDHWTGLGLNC
smiles,measurement,setting,value
Nc1cnc(N2CCc3cc(S(=O)(=O)Nc4c(F)cc(Cl)cc4F)cc(N4CCCC4=O)c32)nc1 [TP-020n],% of control,[1],100%
Cc1cc(CN)cc(C)c1-c1ncn(C)c1-c1cncn1C,dTM,[2],-1.97 K
CC[C@@H]1[C@H](F)C(=O)N[C@@H]1COc1nccc2cc(C(N)=O)c(OC)cc12 [ZIMLOVISERTIB],% of inhibition,[3]; at 0.01 µM,-8.3%
same,% of inhibition,[3]; at 0.04 µM,-5.9%
same,% of inhibition,[3]; at 0.2 µM,-13.7%
same,% of inhibition,[3]; at 1 µM,3.6%
same,% of inhibition,[3]; at 5 µM,-22.1%
Cc1cc([C@@H](C)Nc2ccccc2C(=O)O)c2nc(N3CCOCC3)cc(=O)n2c1 [AZD-6482],% of control,[4],68%
same,% of control,[5],100%
N#Cc1cccc(-c2c[nH]c3ncnc(N4CCOCC4)c23)c1,% of control,[6],80%
Cc1ccc(-c2ccc3c(ccc4sc5c(c43)NC[C@@H](C)NC5=O)n2)cn1,% of inhibition,[7],38%
CN(C)CCOc1ccc(-c2nc(-c3ccncc3)c(-c3ccc4c(c3)CC/C4=N\O)[nH]2)cc1,% of control,[8],84%
CNC(=O)Nc1ccc(-c2nc(N3CC4CCC(C3)O4)c3cnn(C4CCC5(CC4)OCCO5)c3n2)cc1,% of control,[9],86%
same,% of inhibition,[10],11%
Cn1cc(-n2cnc3c(NCc4nc5cc(Cl)c(Cl)cc5[nH]4)nc(N4CCOCC4)nc32)cn1,% of control,[11],12.7%
Cc1cc(C)cc([C@@H]2c3cc(C)ccc3NC(=O)CN2C(=O)c2ccc(Br)s2)c1,% of activity,[12]; at 1 µM,101%
same,% of activity,[12]; at 10 µM,96%

# Reference: ChEMBL document CHEMBL5465560, “Selectivity Literature for EUbOPEN Chemogenomic Library” (2024)
